Data from ChEMBL document CHEMBL5131531, “Small Molecule Inhibitors of TET Dioxygenases: Bobcat339 Activity Is Mediated by Contaminating Copper(II)” (ACS Med Chem Lett, 2022).
The source made the active and inactive calls.

Columns and labels:
[1] = target: Methylcytosine dioxygenase TET1 (Homo sapiens) (UniProt Q8NFU7); assay: Inhibition of recombinant human TET1 assessed as reduction of 5hmC formation at 0.01 to 125 uM incubated for 30 mins in presence of 4 uM CuSO4 by HPLC-ESI-MS/MS method; conditions: dose 0.01-125 µM
[2] = target: Methylcytosine dioxygenase TET1 (Homo sapiens) (UniProt Q8NFU7); assay: Inhibition of recombinant human TET1 catalytic domain assessed as reduction of 5hmC formation at 25 uM incubated for 30 mins by HPLC-ESI-MS/MS method
[3] = target: Methylcytosine dioxygenase TET1 (Homo sapiens) (UniProt Q8NFU7); assay: Inhibition of recombinant human TET1 assessed as reduction of 5hmC formation at 0.01 to 125 uM incubated for 30 mins in presence of 1 uM CuSO4 by HPLC-ESI-MS/MS method; conditions: dose 0.01-125 µM
[4] = target: Methylcytosine dioxygenase TET1 (Homo sapiens) (UniProt Q8NFU7); assay: Inhibition of recombinant human TET1 catalytic domain assessed as reduction of 5hmC formation at 125 uM using hemi-methylated synthetic oligomer 5'-AATTAGAA[5meC]GCTCCTT-3' as substrate incubated for 30 mins by LC-MS method
[5] = target: Methylcytosine dioxygenase TET1 (Homo sapiens) (UniProt Q8NFU7); assay: Inhibition of recombinant human TET1 catalytic domain assessed as reduction of 5hmC formation at 125 uM using hemi-methylated synthetic oligomer 5'-AATTAGAA[5meC]GCTCCTT-3' as substrate incubated for 30 mins in presence of CuSO4 by LC-MS method
[6] = target: Methylcytosine dioxygenase TET2 (Homo sapiens) (UniProt Q6N021); assay: Inhibition of recombinant human TET2 catalytic domain assessed as reduction of 5hmC formation at 125 uM using hemi-methylated synthetic oligomer 5'-AATTAGAA[5meC]GCTCCTT-3' as substrate incubated for 30 mins by LC-MS method

Measured: inhibition

Methylcytosine dioxygenase TET1 (Homo sapiens), sequence (Q8NFU7 whole entry, the tested form may be a part): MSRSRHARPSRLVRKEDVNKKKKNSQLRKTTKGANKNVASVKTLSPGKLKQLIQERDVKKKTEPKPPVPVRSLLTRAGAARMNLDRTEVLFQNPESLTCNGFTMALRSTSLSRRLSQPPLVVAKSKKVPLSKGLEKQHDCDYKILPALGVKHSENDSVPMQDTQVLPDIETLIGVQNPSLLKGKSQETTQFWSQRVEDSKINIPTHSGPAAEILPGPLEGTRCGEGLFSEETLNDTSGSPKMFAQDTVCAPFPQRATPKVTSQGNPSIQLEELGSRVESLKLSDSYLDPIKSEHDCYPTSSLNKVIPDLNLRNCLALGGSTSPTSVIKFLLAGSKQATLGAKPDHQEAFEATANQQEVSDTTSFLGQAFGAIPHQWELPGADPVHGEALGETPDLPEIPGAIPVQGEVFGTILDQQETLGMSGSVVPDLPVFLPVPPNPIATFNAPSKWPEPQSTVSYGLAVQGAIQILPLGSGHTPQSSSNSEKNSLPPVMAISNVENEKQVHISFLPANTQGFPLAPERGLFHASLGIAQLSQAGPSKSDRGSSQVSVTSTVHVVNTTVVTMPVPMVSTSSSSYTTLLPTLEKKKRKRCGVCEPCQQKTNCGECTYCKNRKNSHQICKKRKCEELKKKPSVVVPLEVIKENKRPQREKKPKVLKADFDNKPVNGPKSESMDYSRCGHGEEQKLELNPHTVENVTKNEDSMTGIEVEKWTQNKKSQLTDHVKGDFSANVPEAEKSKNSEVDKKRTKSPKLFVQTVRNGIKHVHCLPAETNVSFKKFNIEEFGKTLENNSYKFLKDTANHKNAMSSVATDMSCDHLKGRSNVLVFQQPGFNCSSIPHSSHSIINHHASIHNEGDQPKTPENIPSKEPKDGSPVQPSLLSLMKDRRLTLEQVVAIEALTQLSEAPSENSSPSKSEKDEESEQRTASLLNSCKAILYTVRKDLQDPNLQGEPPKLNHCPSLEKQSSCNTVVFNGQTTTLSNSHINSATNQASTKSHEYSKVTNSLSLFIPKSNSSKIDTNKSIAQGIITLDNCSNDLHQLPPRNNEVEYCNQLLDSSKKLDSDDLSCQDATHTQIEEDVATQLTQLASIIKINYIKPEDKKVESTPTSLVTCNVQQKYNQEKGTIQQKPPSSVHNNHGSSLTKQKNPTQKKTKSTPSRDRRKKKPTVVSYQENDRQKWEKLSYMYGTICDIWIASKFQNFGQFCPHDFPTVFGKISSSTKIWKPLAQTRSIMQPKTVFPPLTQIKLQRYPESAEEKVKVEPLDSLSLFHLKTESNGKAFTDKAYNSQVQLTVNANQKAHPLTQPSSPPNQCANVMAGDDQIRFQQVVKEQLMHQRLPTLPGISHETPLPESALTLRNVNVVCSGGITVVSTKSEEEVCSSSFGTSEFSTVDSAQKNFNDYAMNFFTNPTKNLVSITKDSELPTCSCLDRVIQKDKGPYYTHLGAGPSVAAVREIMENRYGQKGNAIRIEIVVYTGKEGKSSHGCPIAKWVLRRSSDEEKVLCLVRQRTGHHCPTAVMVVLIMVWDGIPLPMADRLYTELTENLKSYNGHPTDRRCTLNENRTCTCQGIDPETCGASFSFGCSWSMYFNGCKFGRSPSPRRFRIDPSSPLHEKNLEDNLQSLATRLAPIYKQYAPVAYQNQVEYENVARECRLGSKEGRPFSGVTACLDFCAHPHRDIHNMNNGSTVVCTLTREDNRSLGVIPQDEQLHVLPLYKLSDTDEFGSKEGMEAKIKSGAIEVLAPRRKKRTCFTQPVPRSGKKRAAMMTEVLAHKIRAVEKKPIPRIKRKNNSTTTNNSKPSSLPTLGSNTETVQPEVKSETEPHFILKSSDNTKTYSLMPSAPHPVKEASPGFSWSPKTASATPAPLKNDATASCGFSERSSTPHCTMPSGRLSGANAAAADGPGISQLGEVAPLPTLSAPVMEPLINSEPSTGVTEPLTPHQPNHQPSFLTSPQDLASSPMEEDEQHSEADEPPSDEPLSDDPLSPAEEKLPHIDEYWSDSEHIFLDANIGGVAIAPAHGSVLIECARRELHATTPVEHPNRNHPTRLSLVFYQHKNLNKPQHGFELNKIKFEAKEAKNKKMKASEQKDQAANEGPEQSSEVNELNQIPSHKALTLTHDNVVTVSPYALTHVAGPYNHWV

Nc1nc(=O)n(-c2cccc(-c3ccccc3)c2)cc1Cl
not listed: [6]
active: all other assays above

CUPRIC SULFATE
active: [2] | [4] | [6]
